Source: publication PMC7693676, “Suberitamides A–C, Aryl Alkaloids from a Pseudosuberites sp. Marine Sponge that Inhibit Cbl-b Ubiquitin Ligase Activity” (Marine Drugs, 2020)

Target: T1, Cbl-b (Homo sapiens, UniProt Q13191)
T1 construct: gene CBLB; N1/2 Construct; with E1 (UBE1) and E2 (UBC-H5) with ubiquitin in the assay
Experiment: in vitro Cbl-b autoubiquitination assay (UBA-coated plate, biotin-ubiquitin/avidin-HRP fluorescence), dose response
Type: biochemical

T1 sequence (Q13191 whole entry): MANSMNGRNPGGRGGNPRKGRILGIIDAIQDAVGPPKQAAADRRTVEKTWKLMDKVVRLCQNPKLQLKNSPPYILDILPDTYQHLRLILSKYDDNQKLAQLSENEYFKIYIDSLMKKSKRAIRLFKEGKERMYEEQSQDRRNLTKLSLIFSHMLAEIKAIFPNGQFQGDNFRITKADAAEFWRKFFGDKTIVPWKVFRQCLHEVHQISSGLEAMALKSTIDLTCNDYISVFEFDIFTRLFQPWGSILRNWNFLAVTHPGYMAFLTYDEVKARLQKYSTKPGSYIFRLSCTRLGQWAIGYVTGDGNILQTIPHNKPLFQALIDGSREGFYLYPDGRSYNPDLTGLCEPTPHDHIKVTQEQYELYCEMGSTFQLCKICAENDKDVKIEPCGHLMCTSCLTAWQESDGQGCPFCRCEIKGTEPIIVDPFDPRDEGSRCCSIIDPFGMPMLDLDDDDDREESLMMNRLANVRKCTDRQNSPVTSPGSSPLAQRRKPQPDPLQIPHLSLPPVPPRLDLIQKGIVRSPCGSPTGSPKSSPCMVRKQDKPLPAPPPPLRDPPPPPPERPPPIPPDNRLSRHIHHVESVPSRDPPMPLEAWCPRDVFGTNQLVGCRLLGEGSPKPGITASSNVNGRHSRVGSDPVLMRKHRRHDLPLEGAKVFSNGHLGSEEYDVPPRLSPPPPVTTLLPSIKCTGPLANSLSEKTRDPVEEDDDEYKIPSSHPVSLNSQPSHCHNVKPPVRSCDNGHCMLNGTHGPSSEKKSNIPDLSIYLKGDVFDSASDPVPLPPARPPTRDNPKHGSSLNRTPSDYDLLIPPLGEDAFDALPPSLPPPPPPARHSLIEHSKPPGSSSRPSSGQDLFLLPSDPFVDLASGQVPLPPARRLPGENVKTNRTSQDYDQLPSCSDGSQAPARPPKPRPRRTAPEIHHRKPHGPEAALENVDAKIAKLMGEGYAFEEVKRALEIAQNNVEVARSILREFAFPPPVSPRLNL
T1 sequence (P22314 2-1058 partner): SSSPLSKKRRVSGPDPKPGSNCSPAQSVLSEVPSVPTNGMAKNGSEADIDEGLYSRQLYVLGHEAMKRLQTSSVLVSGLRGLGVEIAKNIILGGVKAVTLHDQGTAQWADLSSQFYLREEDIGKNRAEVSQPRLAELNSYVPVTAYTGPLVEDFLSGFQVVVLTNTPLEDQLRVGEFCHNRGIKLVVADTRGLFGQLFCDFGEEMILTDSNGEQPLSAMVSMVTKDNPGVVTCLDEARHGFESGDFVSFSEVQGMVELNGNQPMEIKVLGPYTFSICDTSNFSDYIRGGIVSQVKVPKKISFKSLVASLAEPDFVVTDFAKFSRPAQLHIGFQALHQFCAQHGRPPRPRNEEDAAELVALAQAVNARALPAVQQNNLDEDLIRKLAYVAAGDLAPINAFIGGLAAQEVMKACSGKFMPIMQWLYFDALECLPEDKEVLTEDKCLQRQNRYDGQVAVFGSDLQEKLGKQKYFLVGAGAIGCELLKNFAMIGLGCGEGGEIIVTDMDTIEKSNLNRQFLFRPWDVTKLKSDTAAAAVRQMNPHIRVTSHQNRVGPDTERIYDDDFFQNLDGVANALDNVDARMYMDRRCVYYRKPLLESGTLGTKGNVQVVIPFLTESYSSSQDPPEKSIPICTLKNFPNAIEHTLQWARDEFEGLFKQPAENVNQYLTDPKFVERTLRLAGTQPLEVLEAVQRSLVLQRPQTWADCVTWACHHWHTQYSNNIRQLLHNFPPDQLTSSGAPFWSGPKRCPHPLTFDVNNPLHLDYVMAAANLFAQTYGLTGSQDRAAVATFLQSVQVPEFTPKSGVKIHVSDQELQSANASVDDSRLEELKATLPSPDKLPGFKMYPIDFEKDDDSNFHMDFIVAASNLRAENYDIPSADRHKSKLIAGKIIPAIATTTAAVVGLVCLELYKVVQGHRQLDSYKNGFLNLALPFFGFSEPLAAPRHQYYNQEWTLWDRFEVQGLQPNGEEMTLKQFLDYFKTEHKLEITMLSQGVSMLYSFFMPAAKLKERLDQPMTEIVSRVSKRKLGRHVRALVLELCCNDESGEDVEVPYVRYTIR

CO[C@@]1(C(=O)N/C=C/c2ccc(O)cc2)O[C@](O)(C(=O)N/C=C/c2ccc(O)cc2)[C@@H](c2ccc(O)c(O)c2)[C@@H]1c1ccc(O)c(O)c1 [compound 1, suberitamide A]
IC50: ~11 µM

O=C(N/C=C/c1ccc(O)cc1)c1c(-c2ccc(O)c(O)c2)c(-c2ccc(O)c(O)c2)c(C(=O)N/C=C/c2ccc(O)cc2)n1CCc1ccc(O)cc1 [compound 2, suberitamide B]
IC50: ~11 µM
